Data: US8383640B2, “Substituted pyrimidine ether compounds and use thereof” (priority 2007, dated 2013)
Where two headings read alike, the source gives them in different places.

Legend:
[1] = system: mite (Tetranychus cinnabarinus); assay: Acaricidal activity, airbrush spray, mite; conditions: mortality after 2-3 days
Method: Compounds were dissolved in mixed solvent (acetone: methanol=1:1), and diluted to required concentration with water containing 0.1% of Tween 80.
The second instar larvae of armyworm (Spodoptera exigua), diamond backmoth (Plutella xylostella), green peach aphids (Myzus persicae) and mite (Tetranychus cinnabarinus) were used in biological test. The method was employed either spraying by airbrush. A test solution (0.5 ml) was sprayed at the pressure of 0.7 kg/cm^2. Percent mortality was determined after 2-3 days.

[2] = system: armyworm (Spodoptera exigua); assay: Insecticidal activity, airbrush spray, armyworm; format: in vivo; conditions: 600 mg/L, mortality after 2-3 days
rice blast = format: cell-based; conditions: in vitro, 24 hours incubation
tomato late blight = format: cell-based; conditions: in vitro, 25 mg/L, 24 hours incubation
cucumber downy mildew = assay: Fungicidal activity in vivo, cucumber downy mildew; conditions: plants sprayed, scored after 1 week
Method: (§1) Determination of Fungicidal Activity In Vivo:
(§2) Compounds were disolved into acetone to receive stock solution. Deionized water containing 0.1% Tween 80 was added in the previous solution to receive 20 ml test solution. Plants are sprayed by using a turntable sprayer. After 24 hours, plants were innoculated with a conidial suspension. Plants were then transferred into a dew chamber [R.H. (relative humidity)>95%] for infection. After this treatment, plants were removed from the chamber to the greenhouse for normal maintaining, After the infection period, the plants were placed in the greenhouse. After 1 week, the plants were scored for disease control.

corn rust = assay: Fungicidal activity in vivo, corn rust; conditions: 25 mg/L, plants sprayed, scored after 1 week
Method: as §1, §2

cucumber anthracnose = assay: Fungicidal activity in vivo, cucumber anthracnose; conditions: plants sprayed, scored after 1 week
Method: as §1, §2

[3] = system: diamond backmoth (Plutella xylostella); assay: Insecticidal activity, airbrush spray, diamond backmoth; format: in vivo; conditions: 600 mg/L, mortality after 2-3 days
cucumber grey mold = assay: Fungicidal activity in vitro, cucumber grey mold; format: cell-based; conditions: 2.8 mg/L, 24 hours incubation
wheat powdery mildew = assay: Fungicidal activity in vivo, wheat powdery mildew; conditions: plants sprayed, scored after 1 week
Method: as §1, §2

carmine spider mite eggs = assay: Inhibition activity on carmine spider mite eggs; format: in vivo
[4] = system: nymph of carmine spider mite; assay: Control on nymph of carmine spider mite; format: in vivo

Row | SMILES | control of mite ([1]; 600 mg/L) [%] | control of rice blast (rice blast; 8.3 mg/L) | control of tomato late blight (tomato late blight) [%] | control of cucumber downy mildew (cucumber downy mildew; 400 mg/L) [%] | control of rice blast (rice blast; 25 mg/L) [%] | control of cucumber anthracnose (cucumber anthracnose; 25 mg/L) [%] | control of cucumber anthracnose (cucumber anthracnose; 400 mg/L) [%] | also measured
1 | COC=C(C(=O)OC)c1ccccc1COc1cc(C(F)(F)F)nc(NC(C)C)n1 [Compound 682] | 100 | – | – | – | – | – | – | –
2 | CO/N=C(/C(=O)OC)c1ccccc1COc1cc(C(F)(F)F)nc(Nc2ccccc2)n1 [Compound 229] | 100 | about 80% | 100 | 100 | – | – | – | control of armyworm [2]: 100%
3 | COC(=O)N(OC)c1ccccc1COc1cc(C2CC2)nc(Nc2ccccc2)n1 [Compound 664] | – | about 80% | 100 | 100 | 100 | – | – | –
4 | CNC(=O)C(=NOC)c1ccccc1COc1cc(C2CC2)nc(Nc2ccccc2)n1 [Compound 665] | – | about 80% | – | – | – | 100 | – | control of corn rust (corn rust): 100%
5 | COC=C(C(=O)OC)c1ccccc1COc1cc(C(F)(F)F)nc(Nc2cccnc2Cl)n1 [Compound 691] | 100 | – | – | – | – | – | – | control of mite ([1]; 40 mg/L): 100%
6 | CNC(=O)N(OC)c1ccccc1COc1nc(Nc2ccccc2)nc(C)c1C [Compound 670] | – | about 80% | – | – | – | 100 | – | –
7 | COC(=O)N(OC)c1ccccc1COc1cc(C)nc(Nc2ccccc2)n1 [Compound 677] | – | 100% | – | – | – | 100 | – | –
8 | COC=C(C(=O)OC)c1ccccc1COc1nc(Nc2ccccc2)nc(C)c1C [Compound 41] | – | about 80% | 100 | 100 | 100 | 100 | 100 | control of rice blast (rice blast; 2.8 mg/L): about 80%; control of corn rust (corn rust): 100%; control of cucumber downy mildew (cucumber downy mildew; 25 mg/L): 100%
9 | COC=C(C(=O)OC)c1ccccc1COc1cc(C(F)(F)F)nc(Nc2ccc(C)cc2C)n1 [Compound 693] | 100 | – | – | – | – | – | – | –
10 | CNC(=O)N(OC)c1ccccc1COc1cc(Br)nc(Nc2ccccc2)n1 [Compound 475] | – | about 80% | – | – | 100 | – | – | control of armyworm [2]: 100%
11 | COC=C(C(=O)OC)c1ccccc1COc1cc(C(F)(F)F)nc(NC2CCCCC2)n1 [Compound 701] | – | – | – | – | – | – | – | control of mite ([1]; 40 mg/L): 100%
12 | CON=C(C(=O)OC)c1ccccc1COc1cc(C2CC2)nc(Nc2ccccc2)n1 [Compound 232] | – | about 80% | 100 | 100 | 100 | – | 100 | –
13 | COC(=O)N(OC)c1ccccc1COc1nc(Nc2ccccc2)nc(C)c1C [Compound 668] | – | about 80% | 100 | 100 | 100 | – | 100 | –
14 | COC(=O)N(OC)c1ccccc1COc1cc(C(F)(F)F)nc(Nc2ccccc2)n1 [Compound 424] | – | – | 100 | 100 | – | – | 100 | control of armyworm [2]: 100%
15 | CNC(=O)C(=NOC)c1ccccc1COc1nc(Nc2ccccc2)nc(C)c1C [Compound 669] | – | – | – | – | – | 100 | – | control of corn rust (corn rust): 100%
16 | COC=C(C(=O)OC)c1ccccc1COc1cc(C(F)(F)F)nc(Nc2ccc(C)c(C)c2)n1 [Compound 697] | 100 | – | – | – | – | – | – | –
17 | CNC(=O)N(OC)c1ccccc1COc1cc(C2CC2)nc(Nc2ccccc2)n1 [Compound 666] | – | 100% | – | – | – | – | – | –
18 | COC=C(C(=O)OC)c1ccccc1COc1cc(C(F)(F)F)nc(Nc2cccc(Cl)c2Cl)n1 [Compound 694] | 100 | – | – | – | – | – | – | control of mite ([1]; 40 mg/L): 100%
19 | COC=C(C(=O)OC)c1ccccc1COc1cc(C2CC2)nc(Nc2ccccc2)n1 [Compound 25] | 100 | about 80% | 100 | 100 | 100 | 100 | 100 | control of diamond backmoth [3]: 100%; control of corn rust (corn rust): 100%; control of cucumber downy mildew (cucumber downy mildew; 25 mg/L): 100%
20 | CON=C(C(=O)OC)c1ccccc1COc1cc(C)nc(Nc2ccccc2)n1 [Compound 676] | – | 100% | – | – | – | – | – | control of rice blast (rice blast; 2.8 mg/L): about 80%
21 | CNC(=O)C(=NOC)c1ccccc1COc1cc(C)nc(Nc2ccccc2)n1 [Compound 678] | – | – | – | – | – | 100 | – | –
22 | CON=C(C(=O)OC)c1ccccc1COc1nc(Nc2ccccc2)nc(C)c1C [Compound 667] | – | 100% | 100 | 100 | 100 | – | 100 | control of diamond backmoth [3]: 100%; control of rice blast (rice blast; 2.8 mg/L): about 80%; control of cucumber grey mold (cucumber grey mold): about 50%
23 | COC=C(C(=O)OC)c1ccccc1COc1cc(C)nc(Nc2ccccc2)n1 [Compound 19] | – | 100% | 100 | 100 | 100 | 100 | 100 | control of rice blast (rice blast; 2.8 mg/L): 100%; control of corn rust (corn rust): 100%; control of cucumber downy mildew (cucumber downy mildew; 25 mg/L): 100%
24 | COC=C(C(=O)OC)c1ccccc1COc1cc(C(F)(F)F)nc(N(C)C)n1 [Compound 680] | – | – | – | – | – | – | – | control of wheat powdery mildew (wheat powdery mildew; 25 mg/L): 98%; control of wheat powdery mildew (wheat powdery mildew; 400 mg/L): 100%
25 | COC=C(C(=O)OC)c1ccccc1COc1cc(C(F)(F)F)nc(Nc2ccccc2)n1 [Compound 20] | 100 | 100% | 100 | 100 | 100 | 100 | 100 | inhibition activity on carmine spider mite eggs (carmine spider mite eggs; 5 mg/L): 80%; inhibition activity on carmine spider mite eggs (carmine spider mite eggs; 10 mg/L): 100%; control on nymph of carmine spider mite ([4]; 10 mg/L): 90%; control on nymph of carmine spider mite ([4]; 20 mg/L): 100%; control of rice blast (rice blast; 2.8 mg/L): 100%; control of mite ([1]; 150 mg/L): 100%
